The values that follow come from article PMC3439832 (Journal of agricultural and food chemistry, 2011).

For data set [1], the system named is anti-p,p′-DDE antibody (mouse polyclonal antibody, sera). The data set can be described thus: indirect competitive ELISA. The data set is classed as binding. The following applies: for % cross-reactivity: (IC50 p,p′-DDE/IC50 chemicals) × 100.
For the next data set, the system named is human tissues. The following applies: in human tissues; cited from earlier work.
Where [2] appears, read: sera of mouse P3 at day 80, before the ELISA was optimized.

The structures appear in SMILES notation. Values after ≈ are worked out from the molar mass of the structure shown. Values joined by “and” are separate entries in the source; they are usually repeats but may differ in a detail not shown here. Equal entries are not always repeated. A value given as a limit tells only on which side of the number the result lay.

On to `Clc1ccc(Cc2ccc(Cl)cc2)cc1` [p,p′-DDM], for which, in data set [1] (pooled mouse sera), the “% cross-reactivity” value is recorded as 59.7%. The half-inhibitory concentration (IC50) in data set [1] (pooled mouse sera, ic-ELISA) was found to be 37.7 ng/mL (≈ 0.159 µM).

Take `O=C(O)C(c1ccc(Cl)cc1)c1ccc(Cl)cc1` [p,p′-DDA]: in data set [1] (pooled mouse sera), the “% cross-reactivity” value turned out to be 0.28%. For the same compound, in data set [1] (pooled mouse sera, ic-ELISA), the IC50 was found to be 8025 ng/mL (≈ 28.5 µM).

As to `O=C(c1ccc(Cl)cc1)c1ccc(Cl)cc1` [p,p′-DBP], the “% cross-reactivity” value in data set [1] (pooled mouse sera) came to 0.27%. In data set [1] (pooled mouse sera, ic-ELISA), this compound displayed an IC50 of 8357 ng/mL (≈ 33.3 µM).

Regarding `Clc1ccc(C(c2ccc(Cl)cc2)C(Cl)Cl)cc1` [p,p′-DDD], the “% cross-reactivity” value in data set [1] (pooled mouse sera) came to 112.5%. Moreover, in data set [1] (pooled mouse sera, ic-ELISA), the half-inhibitory concentration (IC50) stood at 20.0 ng/mL (≈ 0.0625 µM).

`ClC(Cl)=C(c1ccc(Cl)cc1)c1ccccc1Cl` [o,p′-DDE]: the “% cross-reactivity” value in data set [1] (pooled mouse sera) is 0.64%. The IC50 in data set [1] (pooled mouse sera, ic-ELISA) was 3500 ng/mL (≈ 11 µM).

For the compound `OC(c1ccc(Cl)cc1)c1ccc(Cl)cc1` [DCBH], the “% cross-reactivity” value in data set [1] (pooled mouse sera) came to 9.25%. In data set [1] (pooled mouse sera, ic-ELISA), this compound returned an IC50 of 243.3 ng/mL (≈ 0.961 µM).

`Clc1ccc(C(c2ccccc2Cl)C(Cl)(Cl)Cl)cc1` (stereo not shown) [o,p′-DDT] yielded an IC50 in data set [1] (pooled mouse sera, ic-ELISA) of over 20000 ng/mL.

In the case of `Clc1ccc(C(c2ccc(Cl)cc2)C(Cl)(Cl)Cl)cc1` [p,p′-DDT, 2,2-bis(p-chlorophenyl)-1,1,1-trichloroethane], the “% cross-reactivity” value in data set [1] (pooled mouse sera) came to 6.62%. For the same compound, the IC50 in data set [1] (pooled mouse sera, ic-ELISA) is given as 340 ng/mL (≈ 0.959 µM); in data set [1] (setting [2]), “about 2.85 μg/mL”.

With `OCC(c1ccc(Cl)cc1)c1ccc(Cl)cc1` [DDOH, 2,2′-bis(4-chlorophenyl)ethanol], the “% cross-reactivity” value in data set [1] (pooled mouse sera) worked out at 2.87%. In data set [1] (pooled mouse sera, ic-ELISA), this compound yielded an IC50 of 785 ng/mL (≈ 2.94 µM).

The compound `OC(c1ccc(Cl)cc1)(c1ccc(Cl)cc1)C(Cl)(Cl)Cl` [dicofol] yielded an IC50 in data set [1] (pooled mouse sera, ic-ELISA) of over 22500 ng/mL.

As for `ClC(Cl)=C(c1ccc(Cl)cc1)c1ccc(Cl)cc1` [p,p′-DDE, 1,1-Dichloro-2,2-bis(p-chlorophenyl) ethylene], in data set [1] (developed ic-ELISA system), the IC15 was 9.6 ± 24.4 ng/mL and 9.6 ng/mL. Also, the IC50 in data set [1] (g-DDOH-OVA as coating antigen) is 690 ng/mL (≈ 2.17 µM); in data set [1] (pooled mouse sera, ic-ELISA), 22.5 ng/mL (≈ 0.0707 µM); in data set [1] (s-DCBH-OVA as coating antigen), 60 ng/mL (≈ 0.189 µM); in data set [1] (setting [2]) it was about 80 ng/mL (≈ 0.252 µM). In addition, the “% cross-reactivity” value in data set [1] (pooled mouse sera) is reported as 100%. In addition, in the data set on human tissues, the half-life is recorded as 7–11 years.

As for `Clc1ccc(C(c2ccccc2Cl)C(Cl)Cl)cc1` (stereo not shown) [o,p′-DDD], in data set [1] (pooled mouse sera), the “% cross-reactivity” value amounted to 5.00%. This compound registered an IC50 in data set [1] (pooled mouse sera, ic-ELISA) of 450 ng/mL (≈ 1.41 µM).

By IC50 is commonly meant the midpoint of a concentration-inhibition curve.
